Results on 28 compounds are retold here after the Kinase Knowledgebase extract (Sharma et al. 2016).

In test [1] the target is MAPK14 (UniProt Q16539). Description: Enzyme Assay.
Test [2] addresses MAPK14 (human) (UniProt Q16539). Description: Cell-Based Assay. Particulars: monocyte.
Test [3] has as its target MAPK14 (UniProt Q16539). In words: Enzyme Assay. This is another data set of the same source.

Structures are written as SMILES.

Chain of MAPK14 (Q16539 whole entry, looked up): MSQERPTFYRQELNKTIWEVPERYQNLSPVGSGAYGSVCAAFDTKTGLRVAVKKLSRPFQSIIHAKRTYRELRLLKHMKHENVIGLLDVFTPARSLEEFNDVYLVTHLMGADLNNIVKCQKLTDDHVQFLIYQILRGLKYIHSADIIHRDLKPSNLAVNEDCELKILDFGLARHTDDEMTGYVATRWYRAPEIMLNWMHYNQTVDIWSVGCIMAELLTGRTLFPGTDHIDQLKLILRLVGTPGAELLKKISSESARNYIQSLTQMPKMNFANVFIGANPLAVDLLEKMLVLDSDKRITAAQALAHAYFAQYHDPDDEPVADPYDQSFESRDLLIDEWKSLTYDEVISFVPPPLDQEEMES
Chain of MAPK14 (human) (Q16539 whole entry, looked up): as above

The IC50 is the concentration at which inhibition is half-maximal. For the compound `C[S+]([O-])c1ccc(-c2nc(-c3cccs3)c(-c3ccncc3)[nH]2)cc1` (configuration not stated), the IC50 in test [1] came out at 460 nM.

On to `COc1ccc(-c2nc3n(c2-c2ccncc2)CCC3)cc1`, for which the IC50 in test [2] worked out at 4200 nM; in test [1], 3600 nM. On to `Fc1ccc(-c2ncn(CCCN3CCOCC3)c2-c2ccccn2)cc1`, for which the 50% inhibitory concentration (IC50) in test [1] is greater than 10000 nM. `CSc1cccc(-c2ncn(CCCN3CCOCC3)c2-c2ccncc2)c1` returned an IC50 in test [2] of 1000 nM. For `Clc1cccc(-c2nc3n(c2-c2ccncc2)CCC3)c1`, the IC50 in test [2] stood at 50 nM; in test [1], 40 nM. As to `CCc1nc[nH]c1-c1ccncc1`, the IC50 is greater than 2500 nM in test [3], greater than 5000 nM in test [2] and greater than 30000 nM in test [1]. Regarding `Clc1nc2n(c1-c1ccncc1)CCC2`, the IC50 in test [1] is greater than 50000 nM. `CS(=O)(=O)c1ccc(-c2nc3n(c2-c2ccncc2)CCC3)cc1`: the IC50 in test [2] and in test [1] was greater than 10000 nM throughout. Turning to `CSc1ccc(-c2nc3n(c2-c2ccncc2)CCC3)cc1`, the IC50 in test [2] was 2700 nM; in test [1], 3400 nM. On to `O=[N+]([O-])c1ccc(-c2nc(-c3ccc(F)cc3)c(-c3ccccc3)[nH]2)cc1`, for which the IC50 in test [3] is greater than 2500 nM; in test [2] it was greater than 5000 nM; in test [1] it was greater than 10000 nM. In test [1], `Fc1ccc(-c2ncn(C3CCN(Cc4ccccc4)CC3)c2-c2ccncc2)cc1` showed an IC50 of 440 nM. On to `Fc1ccc(-c2ncn(CCCNCc3ccccc3)c2-c2ccncc2)cc1`, for which the half-maximal inhibitory concentration (IC50) in test [2] stood at 590 nM.

As for `Fc1ccc(-c2nc3n(c2-c2ccncc2)CCC3)cc1`, the values for the IC50 in test [2] and in test [1] were 170 nM and 66 nM, respectively. The corresponding values for `C[S+]([O-])c1ccc(-c2nc3n(c2-c2ccncc2)CCC3)cc1` (configuration not stated) are greater than 10000 nM and greater than 10000 nM. The corresponding values for `CCSc1ccc(-c2nc3n(c2-c2ccncc2)CCC3)cc1` are greater than 20000 nM and 5600 nM. Turning to `O=C1CN(c2ccc(-c3nc(-c4ccc(F)cc4)c(-c4ccncc4)[nH]3)cc2)NO1`, the IC50 in test [1] worked out at 30 nM. In other words, the double-digit nanomolar range.

Take `Brc1ccc(-c2nc3n(c2-c2ccncc2)CCC3)cc1`: the values for the IC50 in test [2] and in test [1] were 700 nM and 3200 nM, respectively. In turn, `Fc1ccc(-c2ncn(CCCN3CCOCC3)c2-c2cccnc2)cc1` showed an IC50 in test [1] greater than 10000 nM.

Regarding `C[S+]([O-])c1ccc(-n2cnc(-c3ccc(F)cc3)c2-c2ccncc2)cc1` (configuration not stated), the half-inhibitory concentration (IC50) in test [2] is 2300 nM.

Turning to `Fc1ccc(-c2c(-c3ccncc3)nc3n2CCC3)cc1`, the IC50 in test [1] is greater than 10000 nM. Turning to `CC(C)(C)C1=CC(O)(C(C)(C)C)CC(c2nc(-c3ccc(F)cc3)c(-c3ccncc3)[nH]2)=C1` (configuration not stated), the values for the IC50 in test [3], in test [2] and in test [1] were greater than 2500 nM, greater than 5000 nM and greater than 30000 nM, respectively. `Clc1ccccc1-c1nc2n(c1-c1ccncc1)CCC2` returned a half-maximal inhibitory concentration (IC50) in test [1] of 250 nM. On the same count and under the same terms, to `CC(=O)OCCc1nc(-c2ccncc2)c(-c2ccc(F)cc2)[nH]1` belongs greater than 10000 nM.

Regarding `Cc1cc(-c2c(-c3ccc(F)cc3)ncn2CCCN2CCOCC2)ccn1`, the IC50 in test [1] was found to be 3000 nM. Regarding `C[S+]([O-])c1cccc(-c2ncn(CCCN3CCOCC3)c2-c2ccncc2)c1` (configuration not stated), the IC50 in test [2] is greater than 5000 nM.

Consider `Cc1cc(-c2[nH]c(-c3ccc([S+](C)[O-])cc3)nc2-c2ccc(F)cc2)ccn1` (configuration not stated), for which the concentration for half-maximal inhibition (IC50) in test [2] worked out at 430 nM. In turn, `Clc1ccc(-c2nc3n(c2-c2ccncc2)CCC3)cc1` showed an IC50 in test [1] of 50 nM. This lies in the double-digit nanomolar range. On the same count and under the same terms, to `CC(=O)OCCn1cnc(-c2ccc(F)cc2)c1-c1ccncc1` belongs 50 nM.
